Assay results reported in patent publication US7592319B2, “Uses of DNA-PK” (Sloan-Kettering Institute for Cancer Research, priority 1998, dated 2009).

Tested on: cells derived from either Ku70 or Ku80 knock-out mice
Test: Survival experiments with Ku-deficient cells exposed to chemotherapeutic agents
Type: cell-based, mouse
Details: FIG. 12

Row | Molecule | sensitivity of Ku70 or Ku80 knock-out mouse cells to the agent (survival)
1 | bleomycin | very sensitive
2 | COc1cccc2c1C(=O)c1c(O)c3c(c(O)c1C2=O)C[C@@](O)(C(=O)CO)C[C@@H]3O[C@H]1C[C@H](N)[C@H](O)[C@H](C)O1 [adriamycin] | very sensitive
